Assay results: US7910620B2, “Uses of neuraminidase inhibitors in infectious diseases” (priority 2005, dated 2011)
“And” between values parts separate entries of the source, which are not always exact repeats. Equal values may be shown once. “Also recorded” adds a separate entry of the source.

What was measured:
[1] = test system: Infectious Canine Tracheobronchitis (ICT) or Kennel Cough; assay type: in vivo, dog; details: for Clinical course (Days to Recover): racing greyhounds Miami, oral antibiotic plus cough suppressant, no Tamiflu, 5 days
[2] = test system: canine parvoviral enteritis; test: Canine parvoviral enteritis clinical cases: treatment and prevention with oral Tamiflu; assay type: in vivo, dog; details: for Outcome of exposed dogs (Days to Recover): exposed - preventive, Tamiflu 1 mg/lb once a day (AM) for 5 days
Experimental: Table 3 represents 28 Chihuahua dogs and puppies that experienced an outbreak of canine parvoviral enteritis within their kennel. The initial treatment lasted one week and was consistent with traditional therapy. (IV fluids, antibiotics and antiemetics). During the first week, 9 puppies died and a second veterinarian was consulted.
The second veterinarian removed all IV treatment and started oral Tamiflu and AmoxiDrops on 11 puppies. This treatment was administered by the kennel staff with the veterinarian consulting by phone.
The exposed dogs received 1 mg/lb of Tamiflu once a day for 5 days.
Table 4 represents of 25 cocker spaniel dogs and puppies that experienced an outbreak of canine parvoviral enteritis within their kennel. The initial treatment lasted one week and was consistent with traditional therapy consisting of IV fluids and antibiotics, antiemetics and steroids. During this period of time, 9 puppies died, and a second veterinarian was consulted.
The second veterinarian removed all IV treatment and oral Tamiflu and sulfadimethoxine/ormetoprim (antibiotic) were the only drugs administered to 11 of the puppies. The 12th puppy was taken to the veterinarian's clinic and received IV therapy. Those puppies remaining at the kennel were treated by the kennel staff.
Table 5 represents 48 individual cases of Canine Parvoviral Enteritis treated with 1 mg/lb Tamiflu AM/PM for 10 treatments. Cases posted VIN's Infectious Dz Board by 20 veterinarians practicing in 15 states.

[3] = test system: Feline Parvoviral Enteritis; test: Feline parvoviral enteritis cases: treatment and prevention with Tamiflu; assay type: in vivo, cat
Experimental: Table 6 represents 5 cases of Feline Parvoviral Enteritis with Tamiflu at 1 mg/lb AM/PM for 10 treatments.

[4] = test system: Raccoon Parvoenteritis/Distemper; test: Raccoon parvoenteritis/distemper treated with Tamiflu; assay type: in vivo; details: raccoons, Tamiflu 1 mg/lb every 12 hrs for 10 treatments, no IV drugs
Experimental: Table 7 represents 5 raccoons treated with Tamiflu at 1 mg/lb given every 12 hrs for 10 treatments. Treatment administered by civilian rehabbers at their homes. Granules mixed with pancake syrup.
Raccoons represent the 5th species (cow, dog, cat, mice) in which a neuraminidase inhibitor has been successful in treating or preventing a disease associated with neuramimidase dependent bacteria. Before using Tamiflu, the hemorrhagic gastroenteritis (Parvo) in raccoon was 100% fatal. […] Treatment was administered by untrained lay personnel at the rehab centers.

[5] = test system: E. coli; test: Clinical Trial: Tamiflu and E. coli (case Pinga, Table 16); assay type: in vivo, feline; details: for Clinical response: case Pinga, acute vomiting and hematuria, endotoxic condition
Experimental: In Table 16, E. coli, a neuraminidase dependent bacteria, was cultured from Pinga's urine following an acute onset of vomiting and hematuria. […] 24, 2005 when […] presented in an endotoxic condition.

For `CC1=C(C(=O)O)N2C(=O)[C@@H](NC(=O)[C@H](N)c3ccccc3)[C@H]2SC1` [Cephalexin], the “Clinical course (Days to Recover)” value [1] was “No Change”.
In the case of `C[C@H]1c2cccc(O)c2C(O)=C2C(=O)[C@]3(O)C(O)=C(C(N)=O)C(=O)[C@@H](N(C)C)[C@@H]3[C@@H](O)[C@@H]21` [Doxy], the “Clinical course (Days to Recover)” value [1] is reported as “No Change”.
`CCOC(=O)C1=C[C@@H](OC(CC)CC)[C@H](NC(C)=O)[C@@H](N)C1` [Tamiflu, oseltamivir] was tested, and the “Days to Recover” value ([2]; Chihuahua kennel puppies, Tamiflu 1 mg/lb AM/PM oral with AmoxiDrops, no IV drugs) was 5 days and 3 days, the Survival of puppies ([2]; Chihuahua kennel, 11 puppies, oral Tamiflu and AmoxiDrops) was “All puppies survived” and the “Outcome of exposed dogs (Days to Recover)” value ([2]; Chihuahua kennel) was “remained healthy”. The “Days to Recover” value ([2]; Sandcastle Kennels cocker puppies, Tamiflu 1 mg/lb AM/PM oral with sulfadimethoxine/ormetoprim) was 3 days and 5 days and 4 days, the “Outcome of exposed dogs (Days to Recover)” value ([2]; Sandcastle Kennels) was “did not develop canine parvoviral enteritis; also recorded: Healthy” and the “Outcome of exposed dog (Days to Recover)” value ([2]; Table 5, exposed puppy, weak parvo test, Tamiflu 1 mg/lb AM/PM) was “Normal”. The “Days to Recover” value ([3]; cats, Tamiflu 1 mg/lb AM/PM for 10 treatments, with IV drugs or SQ fluids) was 4 days and 2 days and 3 days, the “Outcome of exposed kitten (Days to Recover)” value ([3]; exposed kitten, Tamiflu 1 mg/lb once a day (AM) for 5 days) was “remained normal” and the “Days to Recover” value [4] was 3 days. The “Days to Recover” value ([1]; kennel cough, Tamiflu 1 mg/lb AM/PM, with or without oral antibiotic, no cough suppressant) was 3 to 5 days, the “Illness in holding kennels under herd health program” value ([1]; sick dogs 1 mg/lb AM/PM 5 days, others and new puppies 1 mg/lb once a day for 5 days) was “below 5%” and the Clinical response ([5]; E. coli cultured from urine) was “dramatic reversal”. The Observations ([5]; cat Pinga, E. coli cultured from urine, at 2nd treatment, Nov. 24, 2004 5:35 PM, Tamiflu 12 mg PO (1 mg/lb), with Zeniquin) was “Pinga is more alert and has not vomited”, the Temp ([5]; cat Pinga, at 3rd treatment, Nov. 25, 2004) was 99.5 F and the Temp ([5]; cat Pinga, at 4th treatment, Nov. 25, 2004) was 98.9 F. The Observations ([5]; cat Pinga, at 4th treatment, Nov. 25, 2004 5:30 PM, Tamiflu 12 mg PO) was “Urinated, was normal yellow color . . . has”, the Temp ([5]; cat Pinga, at 5th treatment, Nov. 26, 2004) was 98.8 F and the Observations ([5]; cat Pinga, at 5th treatment, Nov. 26, 2004 10:30 AM, Tamiflu 12 mg PO, with Zeniquin) was “exam is normal”. For the same compound, the Temp ([5]; cat Pinga, at 6th treatment, Nov. 26, 2004) was 100.6 F, the Observations ([5]; cat Pinga, at 6th treatment, Nov. 26, 2004 5 PM, Tamiflu 12 mg PO) was “Urinated normal urine . . . passed 3 small” and the Temp ([5]; cat Pinga, at 7th treatment, Nov. 27, 2004) was 98.8 F. The Observations ([5]; cat Pinga, at 7th treatment, Nov. 27, 2004 10:30 AM, Tamiflu 12 mg PO, with Zeniquin) was “more alert . . . began to eat Wellness dry”, the Temp ([5]; cat Pinga, at 9th treatment, Nov. 28, 2004) was 100.1 F and the Observations ([5]; cat Pinga, at 9th treatment, Nov. 28, 2004 10:30 AM, Tamiflu 12 mg PO, with Zeniquin) was “almost “normal” . . . maybe weak in rear”. For the same compound, the Observations ([5]; cat Pinga, at 10th (last) treatment, 5:30 PM, Tamiflu 12 mg PO) was “Pinga appears to be normal . . . this is his”.
For `CN1CCN(c2c(F)cc3c(=O)c(C(=O)O)cn4c3c2OCN4C)CC1` [Zeniquin], the Clinical response ([5]; E. coli cultured from urine) was “failed to respond” and the “Clinical course under antibiotic therapy (Medical History)” value ([5]; cat Pinga, Zeniquin 12.5 mg/day PO from Nov. 22 to Nov. 24, 2004, before Tamiflu) was “had gotten progressively worse over the course of antibiotic therapy, and now appeared to be approaching”.
